The record followed here is patent US20220062299A1, “USE OF GLUCOCORTICOID STEROIDS IN PREVENTING AND TREATING CONDITIONS OF MUSCLE WASTING, AGING AND METABOLIC DISORDER” (NORTHWESTERN UNIVERSITY, priority 2018, published 2022).

Structures are written as SMILES.

For series [1], the system named is GRE-KRE genomic sites (Mef2C, Bckdha, Pck1, Nmnat3). Briefly: Luciferase reporter experiments in electroporated mdx myofibers. Type of series: in vivo, mouse. To be noted: prednisone pulse 1 mg/kg combined with Klf15 overexpression. The source says:
Luciferase experiments in live myofibers. Luciferase plasmids containing regulatory fragments were obtained cloning genomic sequences in the pGL4.23 backbone (#E8411; Promega, Madison, Wis.) using the KpnI-XhoI sites upstream of the minimal promoter site. Fragments were cloned conserving the genomic orientation with regards to transcriptional orientation, adding KpnI and XhoI tails to the appropriate extremities via Phusion PCR. Wildtype fragments […] were cloned from wildtype C57Bl/6J genomic DNA, while mutated fragments (Δ sites) were amplified from ad-hoc synthetized DNA oligonucleotides, using genomic sequences from the C57Bl/6J genomic background (see Table 5 for a complete list of sequences). Flexor digitorum brevis (FDB) fibers were transfected by in vivo electroporation. Methods were described previously in (DiFranco et al., 2009) with modifications described in (Demonbreun and McNally, 2015). Briefly, the hindlimb footpad was injected with 10 μl hyaluronidase (8 units) (Cat #H4272, Sigma, St. Louis, Mo.). […] Ex vivo luciferase assay was performed on whole, electroporated FDB muscles. […] Luminescence was recorded at the Synergy HTX multi-mode 96-well plate reader (BioTek®, Winooski, Vt.). […] Results are expressed as fold change to average vehicle. All luciferase quantitation assays were conducted blinded to treatment groups. […]
On the technique in general: Reporter assays use an easily measured gene product as a stand-in for the process of interest.

Series [2] concerns mdx mice. Briefly: Multi-modal imaging (FDG-PET, microCT, MR) of live mdx mice. Type of series: in vivo, mouse. To be noted: weekly prednisone. From the text: Multi-modal Imaging (FDG-PET, microCT, MR). Mice were anesthetized in an induction chamber with 3% isoflurane in oxygen, weighed, and then transferred to a dedicated imaging bed with isoflurane delivered via nosecone at 1-2%. Mice were placed in the prone position on a plastic bed and immobilized to minimize changes in position between scans. Respiratory signals were monitored using a digital monitoring system developed by Mediso (Mediso-USA, Boston, Mass.). Mice were imaged with a preclinical microPET/CT imaging system (nanoScan PET/CT, Mediso-USA, Boston, Mass.). CT data was acquired with a 2.2× magnification, <60 μm focal spot, 2×2 binning, with 480 projection views over a full circle, using 50 kVp/[…], with a 300 ms exposure time. The projection data was reconstructed with a voxel size of 250 μm and using filtered (Butterworth filter) backprojection software from Mediso. A bone mineral density standard (GRM GmbH, Moehrendorf, Germany) with hydroxyapatite (HA) from 0 to 1200 mg HA/cm^3 was used to convert the CT images from Hounsfield units to bone mineral density. The HA standard was imaged with the same parameters. For PET imaging, a target of 10 MBq of ^18F-fluordeoxyglucose (FDG) was injected intravenously after mice had been fasted for four hours. PET acquisition parameters were as follows: 1:1 coincidence detection and 30-minute acquisition time. MLEM reconstruction was used with CT for attenuation correction and scattering. Pixel size was set to 0.3×0.3 mm. After completion of PET/CT, each mouse was transferred to the MRI scanner and a reference standard consisting of one tube of canola oil and one tube of water was positioned above its back. MRI was performed on a 9.4T Bruker Biospec MRI system with a 30 cm bore, a 12 cm gradient insert, and an AutoPac laser positioned motorized bed (Bruker Biospin Inc, Billerica, Mass.). Respiratory signals and temperature were monitored using an MR-compatible physiologic monitoring system (SA Instruments, Stonybrook, N.Y.); a warm water circulating system was used to maintain body temperature. A 72 mm quadrature volume coil (Bruker Biospin, Inc, Billerica, Mass.) was used to image each mouse's whole body in two overlapping fields of view. First, the mouse was positioned with the thorax at the magnet's isocenter and imaged using a T1-weighted accelerated spin echo sequence (Rapid Acquisition with Relaxation Enhancement, RARE) with five pairs of interleaved axial slice stacks covering brain to mid-abdomen. TR was nominally set at 1000 ms; with respiratory gating the functional TR was approximately 1500 ms (range 1300-2000 ms). The following additional parameters were used: TE=6.25 ms, RARE factor 4, MTX=256×256, FOV 45×45 mm, 15 slices of 1 mm thick, 4 mm gap between slices, and 2 signal averages. […]

As to `C[C@]12C=CC(=O)C=C1CC[C@@H]1[C@@H]2C(=O)C[C@@]2(C)[C@H]1CC[C@]2(O)C(=O)CO` [prednisone, Prednisone], the “Fluc reporter activity of GRE-KRE constructs” value in series [1] was “additive effect”. In series [2], the “18FDG uptake in fat” value is “decreasing”; the “fat mass accumulation (magnetic resonance)” value was “did not increase”; the “muscle uptake of 18FDG” value is given as “increase”; the “osteoporosis (bone mineral density, tomography)” value is reported as “did not induce osteoporosis”.
